Several values for one entry are separate records, joined by “and”; a condition that tells them apart may be missing. Equal entries are not always repeated. Entries after “also recorded” stand apart in the source; their conditions may differ. Where two headings read alike, the source gives them in different places.
Tests used:
[1] = system: Ehrlich ascites carcinoma (EAC); test: Anti-tumour effect of DXR complexes on Ehrlich ascites carcinoma growth in ICR mice (i.v. days 2, 4, 6; tumour cells counted day 8); format: in vivo; settings: DXR 3.5 mg/kg; C4 22.5 mg/kg or C5 12 mg/kg
Description: Random-bred albino mice of line ICR, male and female, from own rearing were used in the study. The room for animal housing was provided with filtered air at 15 changes per hour, a temperature of 19-21° C., relative humidity of 50-60% and regulated light day of 12 hours with change of light and darkness at 6 a.m. and 6 p.m. The mice were kept in transparent polycarbonate cages with a floor area of 600 cm^2 containing softwood sawdust bedding. […] The mice aged 2-2.5 months and having a weight of 19-22 g were randomly distributed in the control and test groups, standardised by mean weights. The control and test groups included 10 and 7 animals correspondingly. The mice of each group were identified by specific ear marks. The cages with animals of each group were identified by cage cards marked with the study date, group number, number and sex of the animals.
The strain of EAC was propagated in ICR mice by intraperitoneal inoculation of 0.2 ml native ascites fluid or 0.5 ml ascites fluid diluted by saline to 1:1 from one or two animals with intraperitoneally growing EAC on day 7. Ascites fluids contained more 98% of viable tumour cells according to trypan blue exclusion test. For the each study the suspension of EAC cells in sterile saline in concentration of 10^7 viable tumour cells/ml was prepared in aseptic conditions from ascites fluid of mouse bearing of EAC on day 7.
The mice of each control and experimental groups were inoculated by intraperitoneal injection of 2×10^6 EAC cells in volume of 0.2 ml at day 0. Intravenous injections for the study were carried out in lateral tail vein of mice once every other day, three times (day 2, 4 and 6) following inoculation of EAC cells. The mice of control group were injected by vehicle in volume of 2.5 ml/kg of body weight (50 μl to mouse of 20 g body weight) intravenously (negative control).
The mice were killed by cervical dislocation two days later after the final treatment with the test complexes on day 8. Ascites fluids were removed, collected, their volumes were recorded, and abdominal cavities were washed by saline 6-7 times and both fluids were pooled. After centrifugation at 1000 r.p.m. for 10 min volumes of tumour cell pellet were also recorded. Number of viable tumour cells was counted by hemocetometer. Means and standard errors for each groups were calculated. Comparison of tumour cell number in control and test groups was carried out using Student's t-test. The influence of tested preparations on EAC growth inhibition was evaluated by the following formula: [formula]

EAC cells = test: Antitumor effect of compound 1 and doxorubicin on EAC in C3H mice (Example 20); format: in vivo; settings: for Ascites volume / Tumor cell quantity / EAC growth inhibition, % to control: days 2, 4, 6, day 9
Description: 20-22 g males of C3H mice were used. Control and experimental groups included 7 animals, which were inoculated 5×10^6 EAC cells i.p. in volume 0.2 ml at day 0. […] One group of mice was untreated control. Results of experiment were accounted on ninth day. Mice were killed by cervical dislocation. Ascitic fluids were removed, collected, their volumes were measured, and abdominal cavities were washed by saline solution 6-7 times. Thus obtained fluids were pooled. The number of viable tumor cells was counted by hemocytometer, using trypan blue exclusion test. The mean and the standard mean error was calculated for each group of mice. Comparison of tumor cell number in control and experimental groups was carried out using Student t-test. Influence of tested preparation on EAC growth inhibition was evaluated by: [formula]

EAC [2] = settings: for EAC growth inhibition / number of tumour cells: days 2, 4, 6, day 9
EAC [3] = test: Effect of compound 1 with AFP on growth of EAC in C3H mice (Example 21); format: in vivo; settings: compound 1 1 mg/kg (20 μg/mouse) i.v. ×3, AFP none
Description: The influence of compound with different amount of AFP on the growth of EAC was studied. The experiments were carried out on inbred C3H mice having initial weight of 20-23 g. The used tumor cell strain was supported by i.p. passages to mice of the same line. At the beginning of the research (day 0) four groups, each of which contained 7 mice, were formed. All of the animals were inoculated by tumour cells in saline solution i.p. (5·10^6 cells in 0,2 ml per a mouse).
The first group of animals was untreated (negative control). The mice were injected by NMS. […] The animals of third and fourth groups were injected the same dose of compound 1, the protein being added to NMS (2,5 and 5 μg/mouse, accordingly). On the ninth day after inoculation by EAC cells the mice were killed and ascitic fluids were collected and estimated quantitatively. Tumor cells suspensions were prepared and aliquotes were mixed with equal volume of 0,1% trypan blue solution. The quantity of tumor cells were counted with hemocytometer.
Results of the experiments were evaluated by means of variation statistics method using Student t-test. The values of inhibiting effects of the preparations were represented as percentage in comparison with control.

[4] = dose 20 μg/mouse i.v. (doxorubicin equivalent, 1 mg/kg)
[5] = dose 20 μg/mouse i.v. (doxorubicin equivalent, 1 mg/kg), 1 mg/kg
[6] = dose 50 μg/mouse i.v. (doxorubicin equivalent, 2.5 mg/kg)
[7] = dose 100 μg/mouse i.v. (doxorubicin equivalent, 5 mg/kg)
[8] = doxorubicin dose 1 mg/kg i.v. in NMS
[9] = doxorubicin dose 2.5 mg/kg i.v. in NMS
[10] = doses corresponding to 1 and 2.5 mg/kg of doxorubicin

Row | SMILES | influence of the compound on the anti-tumour action of DXR in the DXR/compound complex [1] | Ascites volume (EAC cells; [4]) [mL] | Tumor cell quantity (EAC cells; [4]) | EAC growth inhibition, % to control (EAC cells; [5]) [%] | Ascites volume (EAC cells; [6]) [mL] | Tumor cell quantity (EAC cells; [6]) | Ascites volume (EAC cells; [7]) [mL] | Tumor cell quantity (EAC cells; [7]) | EAC growth inhibition (EAC [2]; [8]) [%] | number of tumour cells (EAC [2]; [8]) | number of tumour cells (EAC [2]; [9]) | other results
1 | CC/C=C\C/C=C\C/C=C\C/C=C\C/C=C\C/C=C\CCC(=O)N[C@H](C(=O)O)[C@@H](C)OP(=O)(O)O [C11, N-docosahexaenoyl-o-phospho-L-threonine] | canceled the anti-tumour action of DXR |  |  |  |  |  |  |  |  |  |  | 
2 | COc1cccc2c1C(=O)c1c(O)c3c(c(O)c1C2=O)C[C@@](O)(C(=O)CO)C[C@@H]3O[C@H]1C[C@H](N)[C@H](O)[C@H](C)O1 [DXR, doxorubicin, reference compound] |  | 2.85 ± 1.35 | 765.8 ± 127.52 × 10^6 | 36.9 | 1.85 ± 1.10 | 662.1 ± 99.17 × 10^6 | 0.80 ± 0.60 | 350.0 ± 108.21 × 10^6 | 34.8 | 635.9±122.78 ×10^6 | 537.4±92.89 ×10^6 | EAC growth inhibition, % to control (EAC cells; [7]): 71.2%
3 | COc1cccc2c1C(=O)c1c(O)c3c(c(O)c1C2=O)C[C@@](O)(C(=O)CO)C[C@@H]3O[C@H]1C[C@H](NC(=O)\C=C(C)/C=C/C=C(C)/C=C/C2=C(C)CCCC2(C)C)[C@H](O)[C@H](C)O1 (relative stereo) [Compound 2, N-(13-cis-retinoyl)-doxorubicin] |  |  |  |  |  |  |  |  | 45.3 | 533.5±94.23 ×10^6 | 405.7±120.62 ×10^6 | antitumor effect in respect to EAC (EAC [2]; [10]): exceeding the effect of doxorubicin alone; EAC growth inhibition (EAC [2]; [9]): 58.4%
4 | CCCCC/C=C\C/C=C\C/C=C\C/C=C\CCCC(=O)NCCOP(=O)(O)O [C5, N-arachidonoyl-o-phospho-2-aminoethanol] | canceled the anti-tumour action of DXR; also recorded: cancelled the anti-tumour action of DXR |  |  |  |  |  |  |  |  |  |  | 
5 | CC1=C(/C=C/C(C)=C/C=C/C(C)=C/C(=O)N[C@@H](Cc2ccc(OP(=O)(O)O)cc2)C(=O)O)C(C)(C)CCC1 (stereo in doubt) [C4, N-(all-trans-retinoyl)-o-phospho-L-tyrosine] | cancelled the anti-tumour action of DXR |  |  |  |  |  |  |  |  |  |  | 
6 | COc1cccc2c1C(=O)c1c(O)c3c(c(O)c1C2=O)CC(O)(C(=O)CO)CC3OC1CC(NC(=O)/C=C(C)/C=C/C=C(C)/C=C/C2=C(C)CCCC2(C)C)C(O)C(C)O1 (stereo not drawn) [Compound 1, N-(all-trans-retinoyl)-doxorubicin] |  | 3.50 ± 1.30 | 640.0 ± 78.04 × 10^6 | 47.3 | 2.10 ± 1.70 | 535.0 ± 167.90 × 10^6 | 3.30 ± 1.20 | 571.4 ± 66.96 × 10^6 |  |  |  | EAC growth inhibition, % to control (EAC cells; dose 20 μg/mouse i.v. (doxorubicin equivalent, 1 mg/kg), listed as compound 1, 1 mg/kg): 47%; EAC growth inhibition, % to control (EAC cells; dose 50 μg/mouse i.v. (doxorubicin equivalent, 2.5 mg/kg), 2.5 mg/kg): 55.9%; EAC growth inhibition, % to control (EAC cells; dose 50 μg/mouse i.v. (doxorubicin equivalent, 2.5 mg/kg), listed as compound 1, 2.5 mg/kg): 57% and 56%; EAC growth inhibition, % to control (EAC cells; dose 100 μg/mouse i.v. (doxorubicin equivalent, 5 mg/kg), 5 mg/kg): 52.9%; EAC growth inhibition, % to control (EAC cells; dose 100 μg/mouse i.v. (doxorubicin equivalent, 5 mg/kg), listed as compound 1, 5 mg/kg): 53%; anti-tumour effect towards EAC (EAC cells; [10]): exerts high anti-tumour effect towards EAC; Ascites volume (EAC [3]): 2.0 ± 0.25 mL; Tumor cell quantity (EAC [3]): 1185.7 ± 266.2 × 10^6; EAC growth inhibition, % to control (EAC [3]; 1 mg/kg): 45.0%; EAC growth inhibition, % to control (EAC [3]; listed as compound 1, 1 mg/kg): 45%

From patent publication US6358936B2, “Compounds for the treatment of cancer” (Ardenia Investments, Ltd., priority 1998, dated 2002)
